How the values were obtained:
[1] = system: breast cancer cell line MX-1; assay: MX-1 cell line proliferation assay (3-day, Cell Titer Glo); assay type: cell-based; conditions: Homo sapiens, MX1, MX-1 cells, 72 hours, read-out: Cellular proliferation: EC50
Method: The impact of compounds of the Examples on cancer cell proliferation was determined using the breast cancer cell line MX-1 (ATCC) in a 3-day proliferation assay and the data are reported in Table 1. […] For compound testing, MX-1 cells were plated in 96-well black bottom plates at a density of 5000 cells/well in 90 μL of culture media and incubated at 37° overnight to allow cell adhesion and spreading. Compound dilution series were prepared in DMSO via a 3-fold serial dilution from 3 mM to 0.1 μM. The DMSO dilution series were then diluted 1:100 in phosphate buffered saline, and 10 μL of the resulted solution were added to the appropriate wells of the MX-1 cell plate. The final compound concentrations in the wells were 3, 1, 0.3, 0.1, 0.03, 0.01, 0.003, 0.001, 0.0003, and 0.0001 μM, or 1, 0.3, 0.1, 0.03, 0.01, 0.003, 0.001, 0.0003, 0.0001, and 0.00003 μM.
Luminescence readings from the Cell Titer Glo assay were normalized to the DMSO treated cells and analyzed using the GraphPad Prism software with sigmoidal curve fitting to obtain EC50s.

BRD4 (BDI-BDII_K57-K550) = BRD4 (BDI-BDII_K57-K550) (Homo sapiens, UniProt O60885); assay: TR-FRET bromodomain binding assay; conditions: His-tagged tandem bromodomain, Alexa647-labeled probe; Ki calculated from IC50s, probe Kd and probe concentration
Method: A time-resolved fluorescence resonance energy transfer (TR-FRET) assay was used to determine the affinities of compounds of the Examples listed in Table 1 for the tandem domain of bromodomain BRD4. […] An Alexa647-labeled BET-inhibitor was used as the fluorescent probe in the assay.
TR-FRET data were normalized to the means of 24 no-compound controls (“high”) and 8 controls containing 1 μM un-labeled probe (“low”). Percent inhibition was plotted as a function of compound concentration and the data were fit with the 4 parameter logistic equation to obtain IC50s. Inhibition constants (Ki) were calculated from the IC50s, probe Kd and probe concentration. Typical Z′ values were between 0.65 and 0.75.

Row | Compound | EC50 [1] [nM] | Ki (BRD4 (BDI-BDII_K57-K550)) [nM]
1 | CCS(=O)(=O)Nc1ccc2c(c1)-c1nn(C)c(=O)cc1OCCCCc1cc(F)cc(F)c1O2 [Example A-58, N-(11,13-difluoro-2-methyl-3-oxo-2,3,6,7,8,9-hexahydrodibenzo[4,5:7,8][1,6]dioxacyclododecino[3,2-c]pyridazin-17-yl)ethanesulfonamide] | 18.4 | 2.01
2 | CCS(=O)(=O)Nc1cnc2c(c1)-c1cn(C)c(=O)cc1OCCCCc1cc(F)cc(F)c1O2 [Example A-35, N-(11,13-difluoro-2-methyl-3-oxo-2,3,6,7,8,9-hexahydrobenzo[11,12][1,6]dioxacyclododecino[2,3-b:4,5-c′]dipyridin-17-yl)ethanesulfonamide] | 4.18 | 0.68
3 | CCOC(=O)NS(=O)(=O)N1CCOc2cc(=O)n(C)cc2-c2cc(NS(=O)(=O)CC)ccc2Oc2ccc(Cl)cc2C1 [Example B-15, ethyl ({11-chloro-17-[(ethylsulfonyl)amino]-2-methyl-3-oxo-2,3,6,7-tetrahydrodibenzo[f,i]pyrido[3,4-k][1,8,4]dioxazacyclododecin-8(9H)-yl}sulfonyl)carbamate] | 153 | 1
4 | CCS(=O)(=O)Nc1ccc2c(c1)-c1nn(C)c(=O)cc1OCCCCc1cc(Cl)ccc1O2 [Example A-55, N-(11-chloro-2-methyl-3-oxo-2,3,6,7,8,9-hexahydrodibenzo[4,5:7,8][1,6]dioxacyclododecino[3,2-c]pyridazin-17-yl)ethanesulfonamide] | 14.2 | 2.91
5 | CCS(=O)(=O)c1ccc2c(c1)-c1cn(C)c(=O)cc1OCCCc1ccccc1O2 [Example A-1, 16-(ethylsulfonyl)-2-methyl-7,8-dihydro-2H-dibenzo[4,5:7,8][1,6]dioxacycloundecino[3,2-c]pyridin-3(6H)-one] | 6.89 | 4.58
6 | CCOC(=O)c1ccc2c(c1)-c1cn(C)c(=O)cc1OCCOCc1cc(Cl)ccc1O2 [Example B-17c, ethyl 11-chloro-2-methyl-3-oxo-3,6,7,9-tetrahydro-2H-dibenzo[6,7:9,10][1,4,8]trioxacyclododecino[11,12-c]pyridine-17-carboxylate] | 6.7 | 10.7
7 | Cn1cc2c(cc1=O)OCCCc1cc(Cl)ccc1Oc1ccc(N)cc1-2 [Example A-7, 16-amino-10-chloro-2-methyl-7,8-dihydro-2H-dibenzo[4,5:7,8][1,6]dioxacycloundecino[3,2-c]pyridin-3(6H)-one] | 109 | 25.7
8 | CCS(=O)(=O)c1ccc2c(c1)-c1cn(C)c(=O)cc1OCCCCc1ccncc1O2 [Example A-42, 17-(ethylsulfonyl)-2-methyl-6,7,8,9-tetrahydrobenzo[4,5][1,6]dioxacyclododecino[3,2-c:7,8-c′]dipyridin-3(2H)-one] | 10.2 | 0.86
9 | Cn1cc2c(cc1=O)OCCCCc1cc(F)cc(F)c1Oc1ncc(CS(C)(=O)=O)cc1-2 [Example A-43, 11,13-difluoro-2-methyl-17-((methylsulfonyl)methyl)-6,7,8,9-tetrahydrobenzo[11,12][1,6]dioxacyclododecino[2,3-b:4,5-c′]dipyridin-3(2H)-one] | 10.7 | 3.82
10 | Cn1cc2c(cc1=O)OCCCCc1cc(F)ccc1Oc1ccc(NS(C)(=O)=O)cc1-2 [Example A-50, N-(11-fluoro-2-methyl-3-oxo-2,3,6,7,8,9-hexahydrodibenzo[4,5:7,8][1,6]dioxacyclododecino[3,2-c]pyridin-17-yl)methanesulfonamide] | 3.72 | 2.24
11 | CCS(=O)(=O)c1ccc2c(c1)-c1nn(C)c(=O)cc1OCCCCc1cc(C#N)ccc1O2 [Example A-54, 17-(ethylsulfonyl)-2-methyl-3-oxo-2,3,6,7,8,9-hexahydrodibenzo[4,5:7,8][1,6]dioxacyclododecino[3,2-c]pyridazine-11-carbonitrile] | 162 | 19.7
12 | Cn1cc2c(cc1=O)OCCCCc1cc(Cl)ccc1Oc1ccc(N)cc1-2 [Example A-8, 17-amino-11-chloro-2-methyl-6,7,8,9-tetrahydrodibenzo[4,5:7,8][1,6]dioxacyclododecino[3,2-c]pyridin-3(2H)-one] |  | 25.2
13 | Cn1cc2c(cc1=O)OCCCCc1cc(Cl)ccc1Oc1ncc(N)cc1-2 [Example A-32, 17-amino-11-chloro-2-methyl-6,7,8,9-tetrahydrobenzo[11,12][1,6]dioxacyclododecino[2,3-b:4,5-c′]dipyridin-3(2H)-one] |  | 88.7

The next lines start with the values.

Row | EC50 [1] [nM] | Ki (BRD4 (BDI-BDII_K57-K550)) [nM] | Compound
14 | 17 | 0.97 | CCOC(=O)N1CCOc2cc(=O)n(C)cc2-c2cc(NS(=O)(=O)CC)ccc2Oc2ccc(Cl)cc2C1 [Example B-8, ethyl 11-chloro-17-[(ethylsulfonyl)amino]-2-methyl-3-oxo-2,3,6,7-tetrahydrodibenzo[f,i]pyrido[3,4-k][1,8,4]dioxazacyclododecine-8(9H)-carboxylate]
15 | 26.8 | 8.05 | CCS(=O)(=O)Nc1ccc2c(c1)-c1cn(C)c(=O)cc1OCCCCc1cc(Cl)cnc1O2 [Example A-41, N-(3-chloro-12-methyl-11-oxo-5,6,7,8,11,12-hexahydrobenzo[4,5][1,6]dioxacyclododecino[7,8-b:3,2-c′]dipyridin-15-yl)ethanesulfonamide]
16 | 14.9 | 2.01 | CCS(=O)(=O)Nc1ccc2c(c1)-c1cn(C)c(=O)cc1OCCCCc1ccncc1O2 [Example A-26, N-(2-methyl-3-oxo-2,3,6,7,8,9-hexahydrobenzo[4,5][1,6]dioxacyclododecino[3,2-c:7,8-c′]dipyridin-17-yl)ethanesulfonamide]
17 | 7.82 | 2.25 | CCS(=O)(=O)Nc1ccc2c(c1)-c1cn(C)c(=O)cc1OC(C)CCCc1cc(Cl)ccc1O2 (stereo not drawn) [Example A-17, N-(11-chloro-2,6-dimethyl-3-oxo-2,3,6,7,8,9-hexahydrodibenzo[4,5:7,8][1,6]dioxacyclododecino[3,2-c]pyridin-17-yl)ethanesulfonamide]
18 | 3.82 | 1.84 | CCS(=O)(=O)Nc1ccc2c(c1)-c1cn(C)c(=O)cc1OCCCCc1cc(C#N)ccc1O2 [Example A-45, N-(11-cyano-2-methyl-3-oxo-2,3,6,7,8,9-hexahydrodibenzo[4,5:7,8][1,6]dioxacyclododecino[3,2-c]pyridin-17-yl)ethanesulfonamide]
19 | 42.4 | 3.06 | CCS(=O)(=O)Nc1ccc2c(c1)-c1cn(C)c(=O)cc1OCC/C=C/Cc1cc(Cl)ccc1O2 [Example A-15, (E)-N-(12-chloro-2-methyl-3-oxo-3,6,7,10-tetrahydro-2H-dibenzo[4,5:7,8][1,6]dioxacyclotridecino[3,2-c]pyridin-18-yl)ethanesulfonamide]
20 | 4.31 | 1.32 | CCS(=O)(=O)Nc1ccc2c(c1)-c1cn(C)c(=O)cc1OCCCCc1cc(F)c(F)cc1O2 [Example A-48, N-(11,12-difluoro-2-methyl-3-oxo-2,3,6,7,8,9-hexahydrodibenzo[4,5:7,8][1,6]dioxacyclododecino[3,2-c]pyridin-17-yl)ethanesulfonamide]
21 | 15.2 | 1.66 | CCS(=O)(=O)Nc1ccc2c(c1)-c1cn(C)c(=O)cc1OCCC/C=C/c1cc(Cl)ccc1O2 [Example A-16, (E)-N-(12-chloro-2-methyl-3-oxo-3,6,7,8-tetrahydro-2H-dibenzo[4,5:7,8][1,6]dioxacyclotridecino[3,2-c]pyridin-18-yl)ethanesulfonamide]
22 | 3.97 | 0.74 | CCS(=O)(=O)Nc1ccc2c(c1)-c1cn(C)c(=O)cc1OCCCCc1cc(C(F)(F)F)ccc1O2 [Example A-29, N-[2-methyl-3-oxo-11-(trifluoromethyl)-2,3,6,7,8,9-hexahydrodibenzo[4,5:7,8][1,6]dioxacyclododecino[3,2-c]pyridin-17-yl]ethanesulfonamide]
23 | 16.2 | 2.45 | CCS(=O)(=O)Nc1ccc2c(c1)-c1cn(C)c(=O)cc1OCCCCCc1cc(Cl)ccc1O2 [Example A-19, N-(12-chloro-2-methyl-3-oxo-3,6,7,8,9,10-hexahydro-2H-dibenzo[4,5:7,8][1,6]dioxacyclotridecino[3,2-c]pyridin-18-yl)ethanesulfonamide]
24 | 5.76 | 0.75 | CCS(=O)(=O)Nc1ccc2c(c1)-c1cn(C)c(=O)cc1OCCCCc1ccc(Cl)cc1O2 [Example A-52, N-(12-chloro-2-methyl-3-oxo-2,3,6,7,8,9-hexahydrodibenzo[4,5:7,8][1,6]dioxacyclododecino[3,2-c]pyridin-17-yl)ethanesulfonamide]
25 | 30.9 | 7.7 | Cn1cc2c(cc1=O)OCCOCc1cc(Cl)ccc1Oc1ccc(CS(C)(=O)=O)cc1-2 [Example B-17, 11-chloro-2-methyl-17-((methylsulfonyl)methyl)-6,7-dihydro-2H-dibenzo[6,7:9,10][1,4,8]trioxacyclododecino[11,12-c]pyridin-3(9H)-one]

Source: patent US9994581B2, “Bromodomain inhibitors” (AbbVie Inc., priority 2013, dated 2018)
